Patent US10954214B2 (Janssen Pharmaceutica NV, priority 2016, dated 2021)

How the values were obtained:
[1] = target: full-length MALT1 protein (Strep-MALT1(1-824)-His) (Homo sapiens (Human), UniProt Q9UDY8); test: MALT1 Biochemical Protease Assay (Ac-LRSR-AMC substrate); details: 10 nM FL MALT1, 200 μM Ac-LRSR-AMC, 4 h at RT; read-out: MALT1_Biochemical activity (Ac-LRSR-amc) IC50
In short: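 Full-length MALT1 pre-incubated with compounds (30 μM to 0.5 nM, 11 threefold steps) for 50 min at RT. After Ac-LRSR-AMC was added, the reaction ran 4 h at RT and AMC fluorescence was read. IC50 and Hill slope from curve fitting against no-enzyme and no-compound controls.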

[2] = system: IL10 secretion by OCI-LY3 ABC-DLBCL cells; test: Human IL10 Mesoscale assay (OCI-LY3); type: cell-based; details: Homo sapiens, 24 h
In short: (§1)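 100,000 cells/well treated with compound in 9 twofold steps from 15 μM to 58.6 nM (0.3% DMSO) for 24 h at 37° C; supernatant cytokine measured by MSD electrochemiluminescence sandwich immunoassay. DMSO wells set maximum signal, BTK inhibitor RN486 (30 nM to 131 pM) set maximum inhibition.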

[3] = system: IL6 secretion by OCI-LY3 ABC-DLBCL cells; test: Human IL6 Mesoscale assay (OCI-LY3); type: cell-based; details: Homo sapiens, 24 h
In short: as §1

full-length MALT1 protein (Strep-MALT1(1-824)-His), sequence (Q9UDY8 whole entry): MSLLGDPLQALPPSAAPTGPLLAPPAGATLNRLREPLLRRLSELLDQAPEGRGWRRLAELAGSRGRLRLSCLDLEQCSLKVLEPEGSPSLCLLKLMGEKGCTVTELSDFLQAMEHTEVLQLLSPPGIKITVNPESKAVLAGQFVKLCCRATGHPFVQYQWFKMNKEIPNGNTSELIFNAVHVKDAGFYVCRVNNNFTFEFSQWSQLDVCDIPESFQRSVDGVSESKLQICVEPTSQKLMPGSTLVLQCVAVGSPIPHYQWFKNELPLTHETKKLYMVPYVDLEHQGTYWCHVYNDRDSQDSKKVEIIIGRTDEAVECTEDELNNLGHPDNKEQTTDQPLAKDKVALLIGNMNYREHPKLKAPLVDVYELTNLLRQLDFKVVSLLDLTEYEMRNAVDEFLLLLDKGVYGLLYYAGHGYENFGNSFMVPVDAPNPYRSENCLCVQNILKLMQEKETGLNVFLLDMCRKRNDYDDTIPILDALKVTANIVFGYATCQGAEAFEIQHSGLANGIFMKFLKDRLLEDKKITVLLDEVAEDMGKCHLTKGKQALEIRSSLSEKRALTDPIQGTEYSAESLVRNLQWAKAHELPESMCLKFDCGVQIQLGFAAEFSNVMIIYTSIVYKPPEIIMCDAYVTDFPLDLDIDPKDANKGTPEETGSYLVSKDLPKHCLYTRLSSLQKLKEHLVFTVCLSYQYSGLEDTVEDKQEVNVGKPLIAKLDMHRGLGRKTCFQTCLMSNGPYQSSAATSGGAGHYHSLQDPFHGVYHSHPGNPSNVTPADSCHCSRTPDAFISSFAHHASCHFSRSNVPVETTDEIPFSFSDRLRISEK

Nc1nccc2c(-n3ncc(C(=O)Nc4cnc(-n5nccn5)c(Cl)c4)c3C(F)(F)F)cccc12 [Cpd 330, 1-(1-aminoisoquinolin-5-yl)-N-(5-chloro-6-(2H-1,2,3-triazol-2-yl)pyridin-3-yl)-5-(trifluoromethyl)-1H-pyrazole-4-carboxamide] showed an IC50 [1] of 646 nM, an IC50 [2] of 25 nM and an IC50 [3] of 21 nM.

In the case of Nc1ccc2c(-n3ncc(C(=O)Nc4cnc(-n5nccn5)c(Cl)c4)c3C(F)(F)F)cccc2n1 [Cpd 331, 1-(2-aminoquinolin-5-yl)-N-(5-chloro-6-(2H-1,2,3-triazol-2-yl)pyridin-3-yl)-5-(trifluoromethyl)-1H-pyrazole-4-carboxamide], the IC50 [1] is reported as 501 nM, the IC50 [2] is reported as 339 nM and the IC50 [3] is reported as 309 nM.

N#Cc1cc(NC(=O)c2cnn(-c3cccc4nc(N)ccc34)c2C(F)(F)F)cnc1-n1nccn1 [Cpd 332, 1-(2-aminoquinolin-5-yl)-N-(5-cyano-6-(2H-1,2,3-triazol-2-yl)pyridin-3-yl)-5-(trifluoromethyl)-1H-pyrazole-4-carboxamide] showed an IC50 [1] of 417 nM, an IC50 [2] of 44 nM and an IC50 [3] of 48 nM.

Cc1nc(-c2ccn(C)n2)c(Cl)cc1NC(=O)c1cnn(-c2cnc(N)c3ccccc23)c1C(F)(F)F [Cpd 333, 1-(1-aminoisoquinolin-4-yl)-N-(5-chloro-2-methyl-6-(1-methyl-1H-pyrazol-3-yl)pyridin-3-yl)-5-(trifluoromethyl)-1H-pyrazole-4-carboxamide] gave an IC50 [1] of 245 nM, an IC50 [2] of 123 nM and an IC50 [3] of 155 nM.

With Cc1cc(NC(=O)c2cnn(-c3cnc(N)c4ccccc34)c2C(F)(F)F)c(C)nc1-n1nccn1 [Cpd 334, 1-(1-aminoisoquinolin-4-yl)-N-(2,5-dimethyl-6-(2H-1,2,3-triazol-2-yl)pyridin-3-yl)-5-(trifluoromethyl)-1H-pyrazole-4-carboxamide] the IC50 [1] was 417 nM, the IC50 [2] was 251 nM and the IC50 [3] was 186 nM.

Work on Cc1cc(-n2nccn2)c(Cl)cc1NC(=O)c1cnn(-c2cnc(N)c3ccccc23)c1C(F)(F)F [Cpd 335, 1-(1-aminoisoquinolin-4-yl)-N-(5-chloro-2-methyl-4-(2H-1,2,3-triazol-2-yl)phenyl)-5-(trifluoromethyl)-1H-pyrazole-4-carboxamide] yielded an IC50 [1] of 174 nM, an IC50 [2] of 60 nM and an IC50 [3] of 132 nM.

Cc1nc(-n2cccn2)c(Cl)cc1NC(=O)c1cnn(-c2cnc(N)c3ccccc23)c1C(F)(F)F [Cpd 336, 1-(1-aminoisoquinolin-4-yl)-N-(5-chloro-2-methyl-6-(1H-pyrazol-1-yl)pyridin-3-yl)-5-(trifluoromethyl)-1H-pyrazole-4-carboxamide] was tested, and the IC50 [1] was 214 nM, the IC50 [2] was 117 nM and the IC50 [3] was 209 nM.

Cc1cc(-n2nccn2)c(C#N)cc1NC(=O)c1cnn(-c2cnc(N)c3ccccc23)c1C(F)(F)F [Cpd 337, 1-(1-aminoisoquinolin-4-yl)-N-(5-cyano-2-methyl-4-(2H-1,2,3-triazol-2-yl)phenyl)-5-(trifluoromethyl)-1H-pyrazole-4-carboxamide] showed an IC50 [1] of 141 nM, an IC50 [2] of 182 nM and an IC50 [3] of 209 nM.

Molecule Nc1ncc(-n2ncc(C(=O)Nc3ccnc(C(F)(F)F)c3)c2C(F)(F)F)c2ccccc12 [Cpd 339, 1-(1-aminoisoquinolin-4-yl)-5-(trifluoromethyl)-N-(2-(trifluoromethyl)pyridin-4-yl)-1H-pyrazole-4-carboxamide] has an IC50 [1] of 117 nM, an IC50 [2] of 87 nM and an IC50 [3] of 107 nM.

N#Cc1cc(NC(=O)c2cnn(-c3cnc(N)c4ccccc34)c2C(F)(F)F)ccn1 [Cpd 340, 1-(1-aminoisoquinolin-4-yl)-N-(2-cyanopyridin-4-yl)-5-(trifluoromethyl)-1H-pyrazole-4-carboxamide] showed an IC50 [1] of 209 nM, an IC50 [2] of 229 nM and an IC50 [3] of 295 nM.

Cc1cnn(-c2nc(C)c(NC(=O)c3cnn(-c4cnc(N)c5ccccc45)c3C(F)(F)F)cc2Cl)n1 [Cpd 341, 1-(1-aminoisoquinolin-4-yl)-N-(5-chloro-2-methyl-6-(4-methyl-2H-1,2,3-triazol-2-yl)pyridin-3-yl)-5-(trifluoromethyl)-1H-pyrazole-4-carboxamide] gave an IC50 [1] of 25 nM, an IC50 [2] of 389 nM and an IC50 [3] of 479 nM.

Nc1ncc(-n2ncc(C(=O)Nc3cncc(C(F)(F)F)c3)c2C(F)(F)F)c2ccccc12 [Cpd 342, 1-(1-aminoisoquinolin-4-yl)-5-(trifluoromethyl)-N-(5-(trifluoromethyl)pyridin-3-yl)-1H-pyrazole-4-carboxamide] gave an IC50 [1] of 115 nM, an IC50 [2] of 132 nM and an IC50 [3] of 162 nM.

Cc1nc(-n2nccn2)c(Br)cc1NC(=O)c1cnn(-c2cnc(N)c3ccccc23)c1C(F)(F)F [Cpd 343, 1-(1-aminoisoquinolin-4-yl)-N-(5-bromo-2-methyl-6-(2H-1,2,3-triazol-2-yl)pyridin-3-yl)-5-(trifluoromethyl)-1H-pyrazole-4-carboxamide] showed an IC50 [1] of 20 nM, an IC50 [2] of 37 nM and an IC50 [3] of 69 nM.

O=C(Nc1cnc(-n2nccn2)c(Cl)c1)c1cnn(-c2cccc3[nH]c(=O)ccc23)c1C(F)(F)F [Cpd 344, N-(5-chloro-6-(2H-1,2,3-triazol-2-yl)pyridin-3-yl)-1-(2-oxo-1,2-dihydroquinolin-5-yl)-5-(trifluoromethyl)-1H-pyrazole-4-carboxamide] gave an IC50 [1] of 1230 nM, an IC50 [2] of 52 nM and an IC50 [3] of 52 nM.

Molecule COc1ncc(NC(=O)c2cnn(-c3cccc4c(=O)[nH]ccc34)c2C(F)(F)F)cc1Cl [Cpd 345, N-(5-chloro-6-methoxypyridin-3-yl)-1-(1-oxo-1,2-dihydroisoquinolin-5-yl)-5-(trifluoromethyl)-1H-pyrazole-4-carboxamide] has an IC50 [1] of 93 nM, an IC50 [2] of 58 nM and an IC50 [3] of 79 nM.

For N#Cc1cncc(NC(=O)c2cnn(-c3cccc4c(=O)[nH]ccc34)c2C(F)(F)F)c1 [Cpd 346, N-(5-cyanopyridin-3-yl)-1-(1-oxo-1,2-dihydroisoquinolin-5-yl)-5-(trifluoromethyl)-1H-pyrazole-4-carboxamide], the IC50 [1] was 275 nM, the IC50 [2] was 224 nM and the IC50 [3] was 457 nM.

Cc1cc(NC(=O)c2cnn(-c3cccc4c(=O)[nH]ccc34)c2C(F)(F)F)ccn1 [Cpd 347, N-(2-methylpyridin-4-yl)-1-(1-oxo-1,2-dihydroisoquinolin-5-yl)-5-(trifluoromethyl)-1H-pyrazole-4-carboxamide] was tested, and the IC50 [1] was 933 nM, the IC50 [2] was 31 nM and the IC50 [3] was 43 nM.

Work on Cc1ncc(NC(=O)c2cnn(-c3cccc4c(=O)[nH]ccc34)c2C(F)(F)F)cc1C(F)(F)F [Cpd 348, N-(6-methyl-5-(trifluoromethyl)pyridin-3-yl)-1-(1-oxo-1,2-dihydroisoquinolin-5-yl)-5-(trifluoromethyl)-1H-pyrazole-4-carboxamide] yielded an IC50 [1] of 195 nM, an IC50 [2] of 68 nM and an IC50 [3] of 100 nM.

Molecule O=C(Nc1ccncc1)c1cnn(-c2cccc3c(=O)[nH]ccc23)c1C(F)(F)F [Cpd 349, 1-(1-oxo-1,2-dihydroisoquinolin-5-yl)-N-(pyridin-4-yl)-5-(trifluoromethyl)-1H-pyrazole-4-carboxamide] has an IC50 [1] of 13500 nM, an IC50 [2] of 60 nM and an IC50 [3] of 79 nM.

O=C(Nc1ccnc(C2CC2)c1)c1cnn(-c2cccc3c(=O)[nH]ccc23)c1C(F)(F)F [Cpd 350, N-(2-cyclopropylpyridin-4-yl)-1-(1-oxo-1,2-dihydroisoquinolin-5-yl)-5-(trifluoromethyl)-1H-pyrazole-4-carboxamide] gave an IC50 [1] of 1260 nM, an IC50 [2] of 182 nM and an IC50 [3] of 204 nM.

In the case of CN(C)C(=O)c1ncc(NC(=O)c2cnn(-c3cccc4c(=O)[nH]ccc34)c2C(F)(F)F)cc1Cl [Cpd 351, 3-chloro-N,N-dimethyl-5-(1-(1-oxo-1,2-dihydroisoquinolin-5-yl)-5-(trifluoromethyl)-1H-pyrazole-4-carboxamido)picolinamide], the IC50 [1] is reported as 68 nM, the IC50 [2] is reported as 46 nM and the IC50 [3] is reported as 78 nM.

For CNC(=O)c1ncc(NC(=O)c2cnn(-c3cccc4c(=O)[nH]ccc34)c2C(F)(F)F)cc1Cl [Cpd 352, 3-chloro-N-methyl-5-(1-(1-oxo-1,2-dihydroisoquinolin-5-yl)-5-(trifluoromethyl)-1H-pyrazole-4-carboxamido)picolinamide], the IC50 [1] was 44 nM, the IC50 [2] was 87 nM and the IC50 [3] was 129 nM.

For O=C(Nc1cncc(Cl)c1)c1cnn(-c2cccc3c(=O)[nH]ccc23)c1C(F)(F)F [Cpd 353, N-(5-chloropyridin-3-yl)-1-(1-oxo-1,2-dihydroisoquinolin-5-yl)-5-(trifluoromethyl)-1H-pyrazole-4-carboxamide], the IC50 [1] was 115 nM, the IC50 [2] was 537 nM and the IC50 [3] was 692 nM.

With N#Cc1ncc(NC(=O)c2cnn(-c3cccc4c(=O)[nH]ccc34)c2C(F)(F)F)cc1C(F)(F)F [Cpd 354, N-(6-cyano-5-(trifluoromethyl)pyridin-3-yl)-1-(1-oxo-1,2-dihydroisoquinolin-5-yl)-5-(trifluoromethyl)-1H-pyrazole-4-carboxamide] the IC50 [1] was 52 nM, the IC50 [2] was 437 nM and the IC50 [3] was 457 nM.

For COC(=O)c1ncc(NC(=O)c2cnn(-c3cccc4c(=O)[nH]ccc34)c2C(F)(F)F)cc1Cl [Cpd 355, methyl 3-chloro-5-(1-(1-oxo-1,2-dihydroisoquinolin-5-yl)-5-(trifluoromethyl)-1H-pyrazole-4-carboxamido)picolinate], the IC50 [1] was 10 nM, the IC50 [2] was 407 nM and the IC50 [3] was 912 nM.

N#Cc1cc(NC(=O)c2cnn(-c3cccc4c(=O)[nH]ccc34)c2C(F)(F)F)ccn1 [Cpd 356, N-(2-cyanopyridin-4-yl)-1-(1-oxo-1,2-dihydroisoquinolin-5-yl)-5-(trifluoromethyl)-1H-pyrazole-4-carboxamide] gave an IC50 [1] of 123 nM, an IC50 [2] of 209 nM and an IC50 [3] of 295 nM.
